Results reported in ChEMBL document CHEMBL4425128, “Functional Characterization of Cholera Toxin Inhibitors Using Human Intestinal Organoids” (J Med Chem, 2016).
Activity calls are given as the source filed them. No cut-off for these calls is given here.

Experiments:
[1] = molecular target: Cystic fibrosis transmembrane conductance regulator (Homo sapiens) (UniProt P13569); experiment: Inhibition of CFTR in human intestinal organoids assessed as reduction in forskolin-induced oganoids swelling incubated for 4 hrs with cholera toxin followed by subsequent stimulation with 0.1 uM forskolin by calcein AM staining based confocal microscopy; details: Intestine
Chain of Cystic fibrosis transmembrane conductance regulator (Homo sapiens) (P13569 whole entry, looked up): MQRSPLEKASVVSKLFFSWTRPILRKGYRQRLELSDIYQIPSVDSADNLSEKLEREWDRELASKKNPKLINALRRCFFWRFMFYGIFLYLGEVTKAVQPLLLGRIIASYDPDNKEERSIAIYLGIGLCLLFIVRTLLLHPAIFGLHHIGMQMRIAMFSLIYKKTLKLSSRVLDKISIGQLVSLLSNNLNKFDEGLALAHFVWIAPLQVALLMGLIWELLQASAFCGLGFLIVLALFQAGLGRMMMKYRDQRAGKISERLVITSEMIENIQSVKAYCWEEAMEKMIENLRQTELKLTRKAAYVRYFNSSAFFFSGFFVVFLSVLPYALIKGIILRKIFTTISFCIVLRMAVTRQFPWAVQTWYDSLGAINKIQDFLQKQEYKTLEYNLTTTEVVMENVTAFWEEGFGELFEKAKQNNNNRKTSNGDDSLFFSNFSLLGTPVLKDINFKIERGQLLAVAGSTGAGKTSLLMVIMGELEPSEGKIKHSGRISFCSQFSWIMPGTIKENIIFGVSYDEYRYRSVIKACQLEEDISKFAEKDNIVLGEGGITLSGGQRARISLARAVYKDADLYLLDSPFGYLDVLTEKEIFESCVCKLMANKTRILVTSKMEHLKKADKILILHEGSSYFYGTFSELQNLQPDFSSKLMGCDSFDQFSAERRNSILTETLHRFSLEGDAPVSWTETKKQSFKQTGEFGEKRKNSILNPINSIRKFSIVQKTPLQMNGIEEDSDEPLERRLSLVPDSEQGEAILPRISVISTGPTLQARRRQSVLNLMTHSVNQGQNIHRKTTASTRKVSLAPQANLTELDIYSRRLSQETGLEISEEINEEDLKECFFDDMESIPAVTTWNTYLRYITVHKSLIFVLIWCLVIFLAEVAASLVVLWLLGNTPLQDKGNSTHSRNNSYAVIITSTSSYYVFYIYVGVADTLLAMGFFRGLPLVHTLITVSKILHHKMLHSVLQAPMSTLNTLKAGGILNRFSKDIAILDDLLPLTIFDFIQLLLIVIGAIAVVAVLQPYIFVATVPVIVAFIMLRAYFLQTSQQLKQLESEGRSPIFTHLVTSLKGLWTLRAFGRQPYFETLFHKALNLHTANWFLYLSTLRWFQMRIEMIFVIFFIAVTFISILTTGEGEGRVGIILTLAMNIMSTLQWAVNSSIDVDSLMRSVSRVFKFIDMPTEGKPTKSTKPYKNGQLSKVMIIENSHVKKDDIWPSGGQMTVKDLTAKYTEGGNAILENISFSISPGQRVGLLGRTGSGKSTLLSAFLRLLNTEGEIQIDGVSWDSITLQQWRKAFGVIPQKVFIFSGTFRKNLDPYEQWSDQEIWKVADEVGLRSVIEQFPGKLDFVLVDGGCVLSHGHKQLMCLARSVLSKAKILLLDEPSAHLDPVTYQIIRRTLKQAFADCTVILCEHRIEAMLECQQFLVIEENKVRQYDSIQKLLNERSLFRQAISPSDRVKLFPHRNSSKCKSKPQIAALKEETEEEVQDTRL

[2] = Inhibition of cholera toxin in human intestinal organoids assessed as reduction in oganoids swelling using cholera toxin pre-incubated with compound for 4 hrs before organoid stimulation with cholera toxin by calcein AM staining based confocal microscopy; details: Vibrio cholerae, Intestine
[3] = Inhibition of HRP-tagged Vibrio cholerae cholera enterotoxin subunit B5 binding to GM1 coated plates using GM1os-beta-NAc-propargyl

| SMILES | inhibition [1] | IC50 [2] | IC50 [3] |
| --- | --- | --- | --- |
| O=C[C@H](O)[C@@H](O)[C@@H](O)[C@H](O)CO [GALACTOSE] | inactive | 9100 µM |  |
| CC(=O)N[C@H]1[C@H](O[C@@H]2[C@H](O[C@]3(C(=O)O)C[C@H](O)[C@@H](NC(C)=O)[C@H]([C@H](O)[C@H](O)CO)O3)[C@@H](O)[C@H](O[C@H]3[C@H](O)[C@@H](O)[C@H](N(Cc4cn([C@@H]5[C@@H](OC(C)=O)O[C@@H](n6cc(CN(C(C)=O)[C@@H]7O[C@H](CO)[C@@H](O[C@@H]8O[C@H](CO)[C@H](O[C@@H]9O[C@H](CO)[C@H](O)[C@H](O[C@@H]%10O[C@H](CO)[C@H](O)[C@H](O)[C@H]%10O)[C@H]9NC(C)=O)[C@H](O[C@]9(C(=O)O)C[C@H](O)[C@@H](NC(C)=O)[C@H]([C@H](O)[C@H](O)CO)O9)[C@H]8O)[C@H](O)[C@H]7O)nn6)[C@H](OC(C)=O)[C@H]5OC(C)=O)nn4)C(C)=O)O[C@@H]3CO)O[C@@H]2CO)O[C@H](CO)[C@H](O)[C@@H]1O[C@@H]1O[C@H](CO)[C@H](O)[C@H](O)[C@H]1O | inactive | 0.018 µM | 0.008 µM |
| CC(=O)N[C@H]1[C@H](O[C@@H]2[C@H](O[C@]3(C(=O)O)C[C@H](O)[C@@H](NC(C)=O)[C@H]([C@H](O)[C@H](O)CO)O3)[C@@H](O)[C@H](O[C@H]3[C@H](O)[C@@H](O)[C@H](N(Cc4cn(CCOCCOCCOCCO)nn4)C(C)=O)O[C@@H]3CO)O[C@@H]2CO)O[C@H](CO)[C@H](O)[C@@H]1O[C@@H]1O[C@H](CO)[C@H](O)[C@H](O)[C@H]1O | inactive | 0.424 µM | 0.11 µM |
